Assay results taken from patent US10969387B2, “Compounds, complexes, and methods useful for detecting and/or treating bacterial pathogens” (REGENTS OF THE UNIVERSITY OF MINNESOTA, priority 2015, dated 2021).

Legend:
FepA = FepA (Escherichia coli, UniProt P05825); details: Thulasiraman et al., J Bacteriol. 1998; cited from earlier work
E. coli [1] = details: Thulasiraman et al., J Bacteriol. 1998; cited from earlier work
E. coli [2] = assay: Bacteria detection by fluorescence in T media (probe uptake), E. coli; assay type: cell-based; details: dye not conjugated to an enterobactin analogue; control experiment (FIG. 28)
Experimental: Sample Processing for Bacteria Detection by Fluorescence in T Media Experiments with Bacteria Genus
• 1. Bacteria is prepared • a. Sub bacteria onto blood agar and incubate overnight • b. Select several colonies and grow overnight in LB media at 37° C. in room air on orbital shaker • c. 100 μl of overnight culture is placed into 100 ml T media, incubated for 5 hours (E. coli, Salmonella, A. baumannii, Klebsiella pneumoniae) or 10 hours (B. subtillus, S. aureus) • d. Quantitate using 1:10 dilution and plating 100 μl of dilutions onto blood agar • 2. Prepare the samples in 1.5 microcentrifuge tubes, vortex, in triplicate • a. For each bacteria • i. 1 ml bacteria+25 μl Tris • ii. 1 ml bacteria+25 μl Probe • b. For each run include controls • i. 1 ml T media+25 μl Tris • ii. […] 24+ hours count colonies on quantitative cultures
The effect of probe chemical structure on response can be seen in FIG. 28 in an increase in fluorescence intensity after incubation of E. coli with Ga-TREN-CAM-C2-OG (example 1), Ga-TREN-GlyCAM-GluCAM-OG (example 2), Ga-3,3-LiCAM-GluCAM-OG (example 4), Ga-2,2-LiCAM-GluCAM (example 5), and the non-targeted dye OREGON GREEN dye. […]
The effect of metal ion on probe uptake can be seen in FIG. 29 in anincrease in fluorescence intensity after incubation of E. coli with Ga-3,3-LiCAM-GluCAM-OG, Fe-3,3-LiCAM-GluCAM, the apo probe, 3,3-LiCAM-GluCAM-OG, and the non-target OREGON GREEN dye. […]

Sequence of FepA (P05825 23-746): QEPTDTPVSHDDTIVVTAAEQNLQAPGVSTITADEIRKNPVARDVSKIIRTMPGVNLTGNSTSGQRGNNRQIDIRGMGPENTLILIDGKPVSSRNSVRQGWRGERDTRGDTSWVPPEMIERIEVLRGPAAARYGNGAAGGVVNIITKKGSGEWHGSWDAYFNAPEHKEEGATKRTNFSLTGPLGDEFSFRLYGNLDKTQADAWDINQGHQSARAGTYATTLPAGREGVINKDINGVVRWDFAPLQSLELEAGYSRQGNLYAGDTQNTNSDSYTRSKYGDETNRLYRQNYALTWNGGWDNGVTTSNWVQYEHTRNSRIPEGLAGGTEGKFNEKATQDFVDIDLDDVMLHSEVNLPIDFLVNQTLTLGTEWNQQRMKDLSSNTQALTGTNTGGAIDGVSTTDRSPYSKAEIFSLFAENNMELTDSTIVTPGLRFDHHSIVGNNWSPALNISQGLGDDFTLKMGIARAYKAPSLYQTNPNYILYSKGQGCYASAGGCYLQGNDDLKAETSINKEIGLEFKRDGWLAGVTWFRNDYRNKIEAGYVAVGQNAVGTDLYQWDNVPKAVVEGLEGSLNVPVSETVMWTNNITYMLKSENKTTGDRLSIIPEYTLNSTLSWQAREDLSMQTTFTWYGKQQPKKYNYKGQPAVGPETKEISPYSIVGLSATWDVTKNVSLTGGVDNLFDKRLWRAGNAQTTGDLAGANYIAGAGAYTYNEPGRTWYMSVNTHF

Molecule	recognition by FepA (FepA)	uptake by E. coli (E. coli [1])	accumulation in bacteria (E. coli [2])
O=C(NCCN(CCNC(=O)c1cccc(O)c1O)CCNC(=O)c1cccc(O)c1O)c1cccc(O)c1O [TREN-CAM]	recognized by FepA	actively taken up by E. coli	
OREGON GREEN			does not accumulate in bacteria
